Results published in PubChem BioAssay AID2060503 (Molecular Pharmacology Branch, DTP, NCI, 2025).
Several values for one entry are separate records, joined by “and”; a condition that tells them apart may be missing. Equal values may be shown once.

Test system: 817829-284-R-J1-PDC complex spheroids, viability
Assay: Anticancer human tumor 817829-284-R-J1-PDC patient-derived colon adenocarcinoma cell line growth inhibition [GQUAD]
Conditions: for viability, T/C: stronger effect = lower value
Excerpt: DNA G-quadruplex Stabilizer Agents in Combinations in Complex Spheroids
A high-throughput screen of multi-cell type tumor spheroids was designed to identify active combinations of DNA G-quadruplex stabilizer agents and targeted small molecules. Complex spheroids include a stromal component modeled by human endothelial cells (HUVEC) and fibroblasts modeled by human mesenchymal stem cells (MSCs). The concentration ranges selected for each drug and investigational agent were based upon clinically achievable concentrations if the clinical Cmax of the agent was known.
Compounds. The drugs and investigational agents: pidnarulex (CX-5461; NSC782164), APTO-253 (NSC789042), BRACO-19 (NSC847499), peposertib (NSC802822), ceralasertib (NSC780249), elimusertib (NSC800525), camonsertib (NSC841442), AZD-1390 (NSC803789), olaparib (NSC753686), talazoparib (NSC767125), ART-558 (NSC835418), sotorasib (NSC818433), MRTX-1133 (NSC836407), SN-38 (NSC673596), topotecan (NSC609699), etoposide (NSC141540), doxorubicin (NSC123127), gemcitabine (NSC613327), 5-fluorouracil (NSC19893), paclitaxel (NSC125973), vemurafenib (NSC761431), panobinostat (NSC761190), R-306465 (JNJ-16241199; NSC773264), adavosertib (NSC754352), TP-3654 (NSC805149), carboplatin (NSC241240), KSQ-4279 (NSC840948), and staurosporine (NSC755774) were obtained from the National Cancer Institute (NCI) Developmental Therapeutics Program Chemical Repository (34). The FDA-approved anticancer drug set is available from the NCI Developmental Therapeutics Program. […] The stock solutions were prepared in dimethyl sulfoxide (DMSO, Sigma-Aldrich, St. Louis, MO, cat. D2650) at 800-fold the tested concentration and stored at -70 degrees C prior to their use. All drugs and investigational agents were tested over a range starting from a high concentration at or near the clinical Cmax and decreasing in half-log increments. If the clinical Cmax for an agent had not been determined, the highest concentration tested was 10 microM.
2.3 Cell Culture. All cells were maintained in an incubator at 37 degrees C and 5% CO2 with 95% humidity. The PDC lines were cultured according to standard operating procedures established by the NCI PDMR. All PDCs were thawed and cultured in Matrigel-coated flasks prepared with a working solution of 1X Ham's F-12 nutrient mix, without supplementation (Invitrogen, cat. 11765054), 100 U/mL penicillin-streptomycin (Invitrogen, cat. 15140122), and 2.5% Matrigel (Corning Inc., cat. 354248) for the first three passages. The 857933-349-R-J2-PDC line was cultured in 6C/Colon 1B media, which includes advanced DMEM/F-12 (Thermo Fisher Scientific, cat. 12634028), 10 mM HEPES (Thermo Fisher Scientific, cat. 15630080), 1X GlutaMAX supplement (Thermo Fisher Scientific, cat. 35050061), 0.1 mg/mL primocin (InvivoGen, cat. ant-pm-2), 10% defined fetal bovine serum, heat inactivated (HyClone Laboratories Inc., cat. SH30070.03HI), 50% L-WRN conditioned media (ATCC, cat. CRL-3276), 1.25 mM N-Acetyl-L-cysteine (Sigma-Aldrich, cat. A9165), 10 mM nicotinamide (Sigma-Aldrich, cat. N0636), 1X B-27 supplement (Thermo Fisher Scientific, cat. 17504044), 1X N-2 supplement (Thermo Fisher Scientific, cat. 17502048), 10 microM Y-27632 dihydrochloride (Tocris Bioscience, cat. 1254), and 50 ng/mL human EGF recombinant protein (Thermo Fisher Scientific, cat. PHG0311). The 485176-168-R4-J1-PDC line was cultured in Panc media, which includes all 6C/Colon 1B media components plus 100 ng/mL human FGF-10 (Thermo Fisher Scientific, cat. 100-26), 500 nM SB-431542 (Selleckchem, cat. S1067), and gastrin (Tocris, cat. 3006).
[…]

[1] = curve of first compound, second compound 0.0316 µM
[2] = curve of first compound, second compound 0.1 µM
[3] = curve of first compound, second compound 0.316 µM
[4] = curve of first compound, second compound 1 µM
[5] = curve of first compound, second compound 3.16 µM
[6] = curve of first compound, second compound 10 µM
[7] = second compound 0.0316 µM, first compound 0.0316 µM
[8] = second compound 0.0316 µM, first compound 0.1 µM
[9] = second compound 0.0316 µM, first compound 0.316 µM
[10] = second compound 0.0316 µM, first compound 1 µM
[11] = second compound 0.0316 µM, first compound 3.16 µM
[12] = second compound 0.0316 µM, first compound 10 µM
[13] = second compound 0.1 µM, first compound 0.0316 µM
[14] = second compound 0.1 µM, first compound 0.1 µM
[15] = second compound 0.1 µM, first compound 0.316 µM
[16] = second compound 0.1 µM, first compound 1 µM
[17] = second compound 0.1 µM, first compound 3.16 µM
[18] = second compound 0.1 µM, first compound 10 µM
[19] = second compound 0.316 µM, first compound 0.0316 µM
[20] = second compound 0.316 µM, first compound 0.1 µM
[21] = second compound 0.316 µM, first compound 0.316 µM
[22] = second compound 0.316 µM, first compound 1 µM
[23] = second compound 0.316 µM, first compound 3.16 µM
[24] = second compound 0.316 µM, first compound 10 µM
[25] = second compound 1 µM, first compound 0.0316 µM
[26] = second compound 1 µM, first compound 0.1 µM
[27] = second compound 1 µM, first compound 0.316 µM
[28] = second compound 1 µM, first compound 1 µM
[29] = second compound 1 µM, first compound 3.16 µM
[30] = second compound 1 µM, first compound 10 µM
[31] = second compound 3.16 µM, first compound 0.0316 µM
[32] = second compound 3.16 µM, first compound 0.1 µM
[33] = second compound 3.16 µM, first compound 0.316 µM
[34] = second compound 3.16 µM, first compound 1 µM
[35] = second compound 3.16 µM, first compound 3.16 µM
[36] = second compound 3.16 µM, first compound 10 µM
[37] = second compound 10 µM, first compound 0.0316 µM
[38] = second compound 10 µM, first compound 0.1 µM
[39] = second compound 10 µM, first compound 0.316 µM
[40] = second compound 10 µM, first compound 1 µM
[41] = second compound 10 µM, first compound 3.16 µM
[42] = second compound 10 µM, first compound 10 µM
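Further: spheroids exposed to agents for 7 days before readout.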
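Wherever viability, T/C is given: percent viability relative to DMSO vehicle control taken as 100%.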

Structure (SMILES): COc1cc(C2c3cc4c(cc3C(OC3OC5COC(C)OC5C(O)C3O)C3COC(=O)C23)OCO4)cc(OC)c1O (stereo unspecified) + Cc1[nH]c2ccc(F)cc2c1-c1nc2c3cccnc3c3ncccc3c2[nH]1
- IC50 [1]: 184 nM
- IC50 [2]: 216 nM
- IC50 [3]: 191 nM
- IC50 [4]: 214 nM
- IC50 [5]: 113 nM
- IC50 [6]: 44.8 nM
- viability, T/C [7]: 110%
- viability, T/C [8]: 67.2%
- viability, T/C [9]: 31.6%
- viability, T/C [10]: 27.2%
- viability, T/C [11]: 28.1%
- viability, T/C [12]: 10.6%
- viability, T/C [13]: 95.3%
- viability, T/C [14]: 91.2%
- viability, T/C [15]: 29.5%
- viability, T/C [16]: 31.8%
- viability, T/C [17]: 26%
- viability, T/C [18]: 9.21%
- viability, T/C [19]: 86.7%
- viability, T/C [20]: 80.4%
- viability, T/C [21]: 26.4%
- viability, T/C [22]: 32.7%
- viability, T/C [23]: 28.9%
- viability, T/C [24]: 9.89%
- viability, T/C [25]: 85.6%
- viability, T/C [26]: 89.7%
- viability, T/C [27]: 30.7%
- viability, T/C [28]: 30.4%
- viability, T/C [29]: 25.1%
- viability, T/C [30]: 9.74%
- viability, T/C [31]: 109%
- viability, T/C [32]: 54.1%
- viability, T/C [33]: 16.8%
- viability, T/C [34]: 15.2%
- viability, T/C [35]: 17.8%
- viability, T/C [36]: 3.63%
- viability, T/C [37]: 60.5%
- viability, T/C [38]: 26.2%
- viability, T/C [39]: 9.53%
- viability, T/C [40]: 8.4%
- viability, T/C [41]: 6.82%
- viability, T/C [42]: 2.64%

Structure (SMILES): CC1COCCN1c1cc(-c2ccnn2C)c2ccnc(-c3ccn[nH]3)c2n1 (stereo unspecified) + Cc1cnc(CNC(=O)c2c(=O)c3ccc(N4CCCN(C)CC4)nc3n3c2sc2ccccc23)cn1
- IC50 [1]: < 31.6 nM
- IC50 [2]: < 31.6 nM
- IC50 [3]: < 31.6 nM
- IC50 [4]: < 31.6 nM
- IC50 [5]: < 31.6 nM
- IC50 [6]: < 31.6 nM
- viability, T/C [7]: 14.8%
- viability, T/C [8]: 9.78%
- viability, T/C [9]: 9.09%
- viability, T/C [10]: 7.06%
- viability, T/C [11]: 6.16%
- viability, T/C [12]: 4.96%
- viability, T/C [13]: 13.3%
- viability, T/C [14]: 11.1%
- viability, T/C [15]: 8.18%
- viability, T/C [16]: 6.54%
- viability, T/C [17]: 6.01%
- viability, T/C [18]: 3.97%
- viability, T/C [19]: 15%
- viability, T/C [20]: 11.9%
- viability, T/C [21]: 8.36%
- viability, T/C [22]: 6.17%
- viability, T/C [23]: 5.71%
- viability, T/C [24]: 4.08%
- viability, T/C [25]: 13.8%
- viability, T/C [26]: 14.1%
- viability, T/C [27]: 9.19%
- viability, T/C [28]: 6.22%
- viability, T/C [29]: 5.53%
- viability, T/C [30]: 3.34%
- viability, T/C [31]: 11.8%
- viability, T/C [32]: 12.1%
- viability, T/C [33]: 8.66%
- viability, T/C [34]: 6.72%
- viability, T/C [35]: 3.24%
- viability, T/C [36]: 2.62%
- viability, T/C [37]: 0.06%
- viability, T/C [38]: 0.09%
- viability, T/C [39]: 0.11%
- viability, T/C [40]: 0.08%
- viability, T/C [41]: 0.12%
- viability, T/C [42]: 0.12%

Structure (SMILES): Cc1[nH]c2ccccc2c1CCNCc1ccc(/C=C/C(=O)NO)cc1
- viability, T/C (compound 0.000999 µM): 110% and 93.9% and 106%
- viability, T/C (compound 0.00316 µM): 101% and 100% and 86.5%
- viability, T/C (compound 0.00999 µM): 127% and 124% and 113%
- viability, T/C (compound 0.0316 µM): 73% and 78.2% and 52.8%
- viability, T/C (compound 0.0999 µM): 3.77% and 5.53% and 6.09%
- viability, T/C (compound 0.316 µM): 0.17% and 0.23% and 0.08%
- IC50 (curve of compound): 45.8 nM and 48.8 nM and 33.7 nM
